Experimental data reported in ChEMBL document CHEMBL1667808, “Substituted imidazole derivatives as novel cardiovascular agents” (Bioorg Med Chem Lett, 2011).
Calls of active or inactive are those of the source. The rule behind the calls is not given here.

Assays:
Felis catus [1] = assay: Antihypertensive activity in cat assessed as change in blood pressure at 2.5 mg/kg measured within 5 mins; assay type: functional
Felis catus [2] = assay: Hypotensive activity in cat assessed as decrease carotid occlusion response at 2.5 mg/kg; assay type: functional, organism-based; set-up: dose 2.5 mg/kg
Felis catus [3] = assay: Hypotensive activity in cat assessed as decrease norepinephrine response at 2.5 mg/kg; assay type: functional, organism-based; set-up: dose 2.5 mg/kg
Felis catus [4] = assay: Antihypertensive activity in cat assessed as change in blood pressure at 2.5 mg/kg measured after 5 mins; assay type: functional
Felis catus [5] = assay: Antihypertensive activity in cat assessed as change in heart rate at 2.5 mg/kg measured within 5 mins; assay type: functional
Felis catus [6] = assay: Antihypertensive activity in cat assessed as change in heart rate at 2.5 mg/kg measured after 5 mins; assay type: functional

Row | SMILES | Activity (Felis catus [1]) [mmHg] | Activity (Felis catus [2]) | Activity (Felis catus [3]) | Activity (Felis catus [4]) [mmHg] | Activity (Felis catus [5]) [bpm] | Activity (Felis catus [6])
1 | COc1ccc(/C=N/NC(=O)Cn2c(-c3ccc(O)c(OC)c3)nc(-c3ccccc3)c2-c2ccccc2)cc1 | -10 | Active | inactive |  |  | 
2 | NNC(=O)Cn1c(-c2ccccc2)nc(-c2ccccc2)c1-c1ccccc1 | -25 | inactive | inactive | -15 | -6 | -6 bpm
3 | COc1cc(-c2nc(-c3ccccc3)c(-c3ccccc3)n2CC(=O)NN)ccc1O | -30 | Active | inactive | -20 |  | inactive
4 | COc1cc(-c2nnc(Cn3c(-c4ccc(N(C)C)cc4)nc(-c4ccccc4)c3-c3ccccc3)o2)ccc1O | -50 | Active | inactive | -20 | -6 | -14 bpm
5 | COc1ccc(-c2nnc(Cn3c(-c4ccccc4)nc(-c4ccccc4)c3-c3ccccc3)o2)cc1 | -50 | Active | inactive | -10 |  | 
6 | COc1ccc(/C=N/NC(=O)Cn2c(-c3ccc(OC)cc3)nc(-c3ccccc3)c2-c2ccccc2)cc1 | -5 | Active | inactive | -5 |  | 
7 | COc1ccc(-c2nnc(Cn3c(-c4ccc(N(C)C)cc4)nc(-c4ccccc4)c3-c3ccccc3)o2)cc1 | -15 | Active | Active | -10 | -6 | -10 bpm
8 | NNC(=O)Cn1c(-c2ccccc2O)nc(-c2ccccc2)c1-c1ccccc1 | -22 | inactive | inactive | -17 | -21 | inactive
9 | CN(C)c1ccc(/C=N/NC(=O)Cn2c(-c3ccccc3O)nc(-c3ccccc3)c2-c2ccccc2)cc1 | -60 | Active | inactive | -35 | -8 | -11 bpm
10 | CN(C)c1ccc(-c2nnc(Cn3c(-c4ccccc4O)nc(-c4ccccc4)c3-c3ccccc3)o2)cc1 | -15 | inactive | inactive | 5 | -5 | -5 bpm
11 | COc1cc(/C=N/NC(=O)Cn2c(-c3ccc(N(C)C)cc3)nc(-c3ccccc3)c2-c2ccccc2)ccc1O | -80 | Active | inactive | -55 | -14 | -20 bpm
12 | COc1ccc(-c2nnc(Cn3c(-c4ccc(OC)cc4)nc(-c4ccccc4)c3-c3ccccc3)o2)cc1 | -10 | Active | Active | 10 |  | 
13 | CN(C)c1ccc(-c2nc(-c3ccccc3)c(-c3ccccc3)n2CC(=O)NN)cc1 | -30 | Active | inactive | -30 | -18 | -27 bpm
14 | COc1ccc(/C=N/NC(=O)Cn2c(-c3ccc(N(C)C)cc3)nc(-c3ccccc3)c2-c2ccccc2)cc1 | -45 | Active | inactive | -50 | -12 | -14 bpm
15 | COc1ccc(/C=N/NC(=O)Cn2c(-c3ccccc3)nc(-c3ccccc3)c2-c2ccccc2)cc1 | -15 | inactive | inactive |  | -8 | -11 bpm
16 | COc1ccc(-c2nc(-c3ccccc3)c(-c3ccccc3)n2CC(=O)NN)cc1 | -20 | inactive | inactive | -5 | -16 | -21 bpm
17 | COc1ccc(-c2nnc(Cn3c(-c4ccc(O)c(OC)c4)nc(-c4ccccc4)c3-c3ccccc3)o2)cc1 | -10 | Active | inactive | -10 |  | 
